pIC50: −log10 of the molar value. Like-named read-outs stand apart in the source and are kept apart here.
Key:
MDM2-p53 interaction = MDM2-p53 interaction (Homo sapiens (Human), UniProt Q00987); details: for inhibition at 0.001 µM: read-out: MDM2 % inhibition @0.0010
[1] = system: SJSA-1 cells (p53 wild-type, MDM2 amplified osteosarcoma); test: Protocol A: SJSA-1 growth inhibition (sulphorhodamine B)
SJSA-1 cells = test: Protocol B: SJSA-1 CellTiter-Glo luminescent cell viability assay; details: for pIC50: read-out: SJSA1 IC50, Protocol B, SJSA-1
[2] = system: SN40R2 cells (p53 mutated, MDM2 amplified osteosarcoma); test: Protocol A: SN40R2 growth inhibition (sulphorhodamine B)
Molm-13 AML cell line [3] = test: Combination protocol for measuring apoptosis (cleaved caspase-3), Molm-13; format: cell-based; details: SGI-110 10 nM daily for three days, isoindolinone 20 nM added on third day, 24 hrs, alone or combined, vehicle control 8.72
Method: (§1) Combination Protocol for Measuring Apoptosis
(§2) SGI-110 was added daily for three days. […] Percentage apoptosis was measured as percentage fluorescent cells with cleaved caspase-3 in a Guava easyCyte HT cytometer (Millipore). Cleaved caspase-3 staining was recorded in the FL1 channel, with unstained and DMSO control wells being used to set the gated stained and unstained cell populations.
(§3) Table 1 summarises the % apoptosis seen in Molm-13, MV-4-11, or ML-2 with the indicated compound treatments.

MV-4-11 AML cell line [4] = test: Combination protocol for proliferation in dose matrix (Alamar blue), MV-4-11; format: cell-based
Method: (§4) Combination Protocol for Proliferation in Dose Matrix
(§5) AML cell lines were seeded onto 96-well tissue culture plates in triplicates at a concentration of 1×10^4 cells/well. […] At the end of compound treatment, 20 μl Alamar blue was added. After further 5-6 hr incubation at 37° C. the plates were read on a Spectramax Gemini reader (Molecular Devices; excitation 535 nm, emission 590 nm).

ML-2 AML cell line [5] = test: Combination protocol for measuring apoptosis (cleaved caspase-3), ML-2; format: cell-based; details: SGI-110 10 nM daily for three days, isoindolinone 100 nM added on third day, 24 hrs, alone or combined, vehicle control 3.32
Method: as §1, §2, §3

ML-2 AML cell line [6] = test: Combination protocol for proliferation in dose matrix (Alamar blue), ML-2; format: cell-based
Method: as §4, §5

Molm-13 AML cell line [7] = test: Combination protocol for proliferation in dose matrix (Alamar blue), Molm-13; format: cell-based
Method: as §4, §5

MV-4-11 AML cell line [8] = test: Combination protocol for measuring apoptosis (cleaved caspase-3), MV-4-11; format: cell-based; details: SGI-110 10 nM daily for three days, isoindolinone 20 nM added on third day, 24 hrs, alone or combined, vehicle control 13.69
Method: as §1, §2, §3

SN40R2 cells = test: Protocol B: SN40R2 CellTiter-Glo luminescent cell viability assay; details: read-out: SN40R2 % inhibition at 10, Protocol B, SN40R2, at 10 μM
[9] = Tolerability of subcutaneous SGI-110 formulation in cynomolgus monkeys; format: in vivo
Method: (§6) The formulation was well-tolerated in the species tested. […] Rabbits tolerated the 5-day regimen well, up to a dose of 1.5 mg/kg/day, which is equivalent to […] in humans, and the weekly regimen up to a dose of 1.5 mg/kg/week for 3 weeks.
(§7) Cynomolgus monkeys tolerated the weekly regimen well, up to a dose of 3.0 mg/kg/week for 3 weeks, which is equivalent to […]. Rats tolerated much higher doses: 30 mg/kg/day over 5 days; and 20 mg/kg twice weekly for 4 weeks.

[10] = in vivo, sc
[11] = Tolerability of subcutaneous SGI-110 formulation in rabbits; format: in vivo
Method: as §6

[12] = Tolerability of subcutaneous SGI-110 formulation in rats; format: in vivo
Method: as §6, §7

LINE-1 DNA methylation = LINE-1 DNA methylation in blood samples, repeat dose study; format: in vivo; details: monkeys; 3 mg/kg subcutaneously 3x weekly; until day 22; p<0.05 vs level prior to initial dosing
[13] = Repeat dose pharmacokinetics in monkeys; details: monkey, in vivo, sc, 3 mg/kg subcutaneously 3x weekly, day 15
in vivo = details: monkey, 10 mg/kg
[14] = read-out: SJSA-1 IC50 (μM) (Protocol A), SJSA-1, Protocol A
[15] = read-out: SN40R2 IC50 (μM) (Protocol A)
[16] = Homo sapiens, SJSA-1, read-out: SJSA-1 IC50 (μM) (Protocol A), SJSA-1, Protocol A
[17] = SGI-110 0 μM + isoindolinone 0.001 μM
[18] = SGI-110 0 μM + isoindolinone 0.003 μM
[19] = SGI-110 0 μM + isoindolinone 0.01 μM
[20] = SGI-110 0 μM + isoindolinone 0.03 μM
[21] = SGI-110 0 μM + isoindolinone 0.1 μM
[22] = SGI-110 0 μM + isoindolinone 0.3 μM
[23] = SGI-110 0 μM + isoindolinone 1 μM
[24] = SGI-110 0 μM + isoindolinone 3 μM
[25] = SGI-110 0 μM + isoindolinone 10 μM
[26] = Homo sapiens, SJSA-1, read-out: SJSA-1 IC50 (μM), Protocol A, SJSA-1

Sequence of MDM2-p53 interaction (Q00987 whole entry): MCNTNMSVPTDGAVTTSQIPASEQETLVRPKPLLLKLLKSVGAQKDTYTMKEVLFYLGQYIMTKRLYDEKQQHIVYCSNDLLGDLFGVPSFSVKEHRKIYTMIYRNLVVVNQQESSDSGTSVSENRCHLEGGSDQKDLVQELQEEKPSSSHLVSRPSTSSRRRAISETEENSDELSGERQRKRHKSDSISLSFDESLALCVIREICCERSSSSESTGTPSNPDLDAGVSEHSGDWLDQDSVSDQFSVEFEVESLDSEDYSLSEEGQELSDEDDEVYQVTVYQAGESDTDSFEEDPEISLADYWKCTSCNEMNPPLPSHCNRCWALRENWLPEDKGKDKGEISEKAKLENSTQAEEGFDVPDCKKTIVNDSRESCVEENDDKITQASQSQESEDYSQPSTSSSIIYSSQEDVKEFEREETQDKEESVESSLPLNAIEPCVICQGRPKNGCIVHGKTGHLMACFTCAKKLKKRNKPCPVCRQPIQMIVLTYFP

CO[C@]1(c2ccc(Cl)cc2)c2ccc(C(C)(O)CN3CCNC3=O)cc2C(=O)N1Cc1ccc(Cl)cn1 (single isomer, unassigned) [Example 158]
MDM2 % at stated concentration (MDM2-p53 interaction; at 0.10 μM): 57%@0.10 | IC50 [1, 14]: 1.2 µM

CO[C@]1(c2ccc(Cl)cc2)c2c(F)cc(C(C)(O)C3CCN(C(=O)CO)CC3)cc2C(=O)N1Cc1ccc(Cl)cn1 (single isomer, unassigned) [Example 296]
MDM2 % at stated concentration (MDM2-p53 interaction): 62%@0.0010 | IC50 (SJSA-1 cells; Homo sapiens, SJSA-1, read-out: SJSA1 IC50 (μM) (Protocol B), SJSA-1, Protocol B): 0.16 µM | IC50 [2, 15]: 32 µM | IC50 [1, 16]: 0.11 µM

CO[C@]1(c2ccc(Cl)cc2)c2ccc(C(C)(O)CN3CCOCC3=O)cc2C(=O)N1Cc1ccc(Cl)cn1 (single isomer, unassigned) [Example 327]
MDM2 % at stated concentration (MDM2-p53 interaction; at 0.30 μM): 42%@0.30 | IC50 [1, 14]: 9.3 µM

CO[C@]1(c2ccc(Cl)cc2)c2ccc(C(C)(O)CN3CCOCC3=O)cc2C(=O)N1Cc1ccc(Cl)cn1 (single isomer, unassigned) [Example 328]
MDM2 % at stated concentration (MDM2-p53 interaction; at 0.10 μM): 42%@0.10 | IC50 [1, 14]: 2.3 µM

CO[C@]1(c2ccc(Cl)cc2)c2ccc(C(C)(O)CN3CC(=O)NC3=O)cc2C(=O)N1Cc1ccc(Cl)cn1 (single isomer, unassigned) [Example 329]
MDM2 % at stated concentration (MDM2-p53 interaction; at 0.30 μM): 61%@0.30 | IC50 [1, 14]: 3 µM

CO[C@]1(c2ccc(Cl)cc2)c2ccc(C(C)(O)CN3CC(=O)NC3=O)cc2C(=O)N1Cc1ccc(Cl)cn1 (single isomer, unassigned) [Example 330]
MDM2 % at stated concentration (MDM2-p53 interaction; at 0.30 μM): 36%@0.30 | IC50 [1, 14]: 7.1 µM

CC(O)(c1cc(F)c2c(c1)C(=O)N(Cc1ccc(Cl)cn1)[C@@]2(OCC1(C#N)CC1)c1ccc(Cl)cc1)C1CCN(CCO)CC1 (single isomer, unassigned) [Example 420]
MDM2 % at stated concentration (MDM2-p53 interaction): 68%@0.0010 | IC50 [2, 15]: 17 µM | IC50 [1, 16]: 0.49 µM

CC[C@@](O)(c1cc(F)c2c(c1)C(=O)N([C@H](c1ccc(Cl)cc1)[C@H](C)C(=O)O)[C@@]2(OC)c1ccc(Cl)cc1)C1CCOCC1 [(2S,3S)-3-(4-chlorophenyl)-3-[(1R)-1-(4-chlorophenyl)-7-fluoro-5-[(1S)-1-hydroxy-1-(oxan-4-yl)propyl]-1-methoxy-3-oxo-2,3-dihydro-1H-isoindol-2-yl]-2-methylpropanoic Acid]
% Apoptosis (Molm-13 AML cell line [3]): 32.48% | Percentage viability relative to DMSO control (MV-4-11 AML cell line [4]; [17]): 92% | Percentage viability relative to DMSO control (MV-4-11 AML cell line [4]; [18]): 82% | Percentage viability relative to DMSO control (MV-4-11 AML cell line [4]; [19]): 70% | Percentage viability relative to DMSO control (MV-4-11 AML cell line [4]; [20]): 54% | Percentage viability relative to DMSO control (MV-4-11 AML cell line [4]; [21]): 29% | Percentage viability relative to DMSO control (MV-4-11 AML cell line [4]; [22]): 16% | Percentage viability relative to DMSO control (MV-4-11 AML cell line [4]; [23]): 13% | Percentage viability relative to DMSO control (MV-4-11 AML cell line [4]; [24]): 13% | Percentage viability relative to DMSO control (MV-4-11 AML cell line [4]; [25]): 12% | % Apoptosis (ML-2 AML cell line [5]): 15.15% | Percentage viability relative to DMSO control (ML-2 AML cell line [6]; [17]): 100% | Percentage viability relative to DMSO control (ML-2 AML cell line [6]; [18]): 94% | Percentage viability relative to DMSO control (ML-2 AML cell line [6]; [19]): 78% | Percentage viability relative to DMSO control (ML-2 AML cell line [6]; [20]): 59% | Percentage viability relative to DMSO control (ML-2 AML cell line [6]; [21]): 47% | Percentage viability relative to DMSO control (ML-2 AML cell line [6]; [22]): 30% | Percentage viability relative to DMSO control (ML-2 AML cell line [6]; [23]): 16% | Percentage viability relative to DMSO control (ML-2 AML cell line [6]; [24]): 15% | Percentage viability relative to DMSO control (ML-2 AML cell line [6]; [25]): 9% | Percentage viability relative to DMSO control (Molm-13 AML cell line [7]; [17]): 98% | Percentage viability relative to DMSO control (Molm-13 AML cell line [7]; [18]): 99% | Percentage viability relative to DMSO control (Molm-13 AML cell line [7]; [19]): 84% | Percentage viability relative to DMSO control (Molm-13 AML cell line [7]; [20]): 52% | Percentage viability relative to DMSO control (Molm-13 AML cell line [7]; [21]): 37% | Percentage viability relative to DMSO control (Molm-13 AML cell line [7]; [22]): 27% | Percentage viability relative to DMSO control (Molm-13 AML cell line [7]; [23]): 24% | Percentage viability relative to DMSO control (Molm-13 AML cell line [7]; [24]): 22% | Percentage viability relative to DMSO control (Molm-13 AML cell line [7]; [25]): 15% | % Apoptosis (MV-4-11 AML cell line [8]): 30.83%

Cn1cc(C(O)(c2cc(F)c3c(c2)C(=O)N(Cc2ccc(C#N)cn2)[C@@]3(O[C@H]2CCOC2)c2ccc(Cl)cc2)C(F)(F)F)cn1 (stereo partly drawn) [Example 428, 6-{[(1R)-1-(4-chlorophenyl)-7-fluoro-3-oxo-1-[(3S)-oxolan-3-yloxy]-5-[2,2,2-trifluoro-1-hydroxy-1-(1-methyl-1H-pyrazol-4-yl)ethyl]-2,3-dihydro-1H-isoindol-2-yl]methyl}pyridine-3-carbonitrile]
inhibition at 0.001 µM (MDM2-p53 interaction): 65% | pIC50 (SJSA-1 cells): 6.72 | IC50 ([2]; read-out: SN40R2 IC50 (μM)): 22 µM | IC50 [1, 26]: 0.11 µM

CCC(O)(c1cc(F)c2c(c1)C(=O)N(Cc1ccc(C#N)cn1)[C@@]2(OC1CC(O)C1)c1ccc(Cl)cc1)[C@H]1CC[C@H](O)CC1 (stereo partly drawn) [Example 518, 6-{[(1R)-1-(4-chlorophenyl)-7-fluoro-5-{1-hydroxy-1-[trans-4-hydroxycyclohexyl]propyl}-3-oxo-1-[cis-3-hydroxycyclobutoxy]-2,3-dihydro-1H-isoindol-2-yl]methyl}pyridine-3-carbonitrile]
inhibition at 0.001 µM (MDM2-p53 interaction): 79% | pIC50 (SJSA-1 cells): 7.19 | inhibition at 50 µM ([2]; read-out: SN40R2 % inhibition at 50): 46% | inhibition at 10 µM (SN40R2 cells): 10% | IC50 [1, 26]: 0.058 µM

Nc1ncn([C@H]2C[C@H](OP(=O)(O)OC[C@H]3O[C@@H](n4cnc5c(=O)[nH]c(N)nc54)C[C@@H]3O)[C@@H](CO)O2)c(=O)n1 [SGI-110, 2′-deoxy-5-azacytidylyl-(3′5′)-2′-deoxy-guanosine]
% Apoptosis (Molm-13 AML cell line [3]): 36.08% | tolerated dose, once weekly subcutaneous regimen ([9]; cynomolgus monkeys, for 3 weeks): ≤ 3.0 mg/kg/week | equivalent dose of tolerated weekly regimen dose ([9]; from cynomolgus monkeys 3.0 mg/kg/week): 36 mg/kg/week | myelosuppression and recovery [10]: less myelosuppression and faster recovery | tolerated dose, once daily subcutaneous dose for 5 days ([11]; SGI-110 sodium salt 100 mg/mL in glycol/glycerin/ethanol (65:25:10)): ≤ 1.5 mg/kg/day | tolerated dose, once weekly subcutaneous regimen ([11]; for 3 weeks): ≤ 1.5 mg/kg/week | % Apoptosis (ML-2 AML cell line [5]): 3.93% | tolerated dose, once daily subcutaneous regimen ([12]; over 5 days): 30 mg/kg/day | tolerated dose, twice weekly subcutaneous regimen ([12]; twice weekly for 4 weeks): 20 mg/kg | % Apoptosis (MV-4-11 AML cell line [8]): 26.12% | LINE-1 DNA methylation (LINE-1 DNA methylation): Decreases in LINE-1 DNA methylation

Nc1ncn([C@H]2CC(OP(=O)(O)OC[C@H]3O[C@@H](n4cnc5c(=O)[nH]c(N)nc54)CC3O)[C@@H](CO)O2)c(=O)n1 (stereo partly drawn) [compound 1-1]
AUC at 15 day [13]: 592 ng·h/mL | Cmax at 15 day [13]: 181 ng/mL | AUC (in vivo): 1470 ng·h/mL | Cmax (in vivo): 1130 ng/mL

Nc1ncn([C@H]2C[C@H](O)[C@@H](CO)O2)c(=O)n1 [decitabine, 5-aza-2′-deoxycytidine]
AUC at 15 day [13]: 99 ng·h/mL | Cmax at 15 day [13]: 28 ng/mL | AUC (in vivo): 340 ng·h/mL | Cmax (in vivo): 160 ng/mL
